This note sets out measurements from ChEMBL document CHEMBL3507680, “University of Dundee, Gates Library screen for HepG2 cell viability”.

The nature of the data set: Human HepG2 cell viability assay in 384 well format. It counts as toxicity, cell-based. Further details: dose 125 nL, time 70.5 hour; cytotoxicity at 70.5 h: concentration not given beside the values. The following applies: HepG2 cells, read-out: Inhibition.

Turning to `CC1(C)Cc2ccccc2-c2nc(NCCCO)[nH]c(=O)c21`, the cytotoxicity at 70.5 h is -3.41%. Take `O=c1[nH]c(NCCO)nc2c1C1(CCCCC1)Cc1ccccc1-2`: the cytotoxicity at 70.5 h is -1.9%. Take `CC(C)C1CC(=O)Nc2c1cnn2Cc1ccco1` (stereo not drawn): the cytotoxicity at 70.5 h is -15.8%. For `O=c1cc2c(nn1CN1CCN(c3ccccc3)CC1)CCCC2`, the cytotoxicity at 70.5 h was -15%. Then `COC(=O)[C@H](CCSC)NC(=O)Cc1c(C)nn(-c2ccccc2)c1C`, with -11.6%; and `COc1ccc2nnc(CCC(=O)Nc3nc4c(s3)CCCC4)n2n1`, with -11.9%. Then `Cc1ccc(S(=O)(=O)c2ncccc2CN2CCCCC2)cc1`, with -21%; and `CC(C)C1SCC(=O)Nc2c1cnn2C(C)C` (stereo not drawn), with -23.1%; and `O=c1c(CN2CCOCC2)coc(O)c1CN1CCOCC1`, with -7.31%. Then `CN(C)CC(=O)N1CCc2ncnc(-c3ccsc3)c2CC1`, with -0.46%. As to `CCn1nnc2c1CCN(S(C)(=O)=O)C2COCc1ccccc1` (stereo not drawn), the cytotoxicity at 70.5 h was found to be 2.15%. Consider `c1csc(CN2C[C@H]3CCC[C@@]3(COCC3CCOCC3)C2)n1`, for which the cytotoxicity at 70.5 h is 1.66%. For the molecule `CNC(=O)N1CC[C@@H]2CN(CCc3cccc(OC)c3)S(=O)(=O)[C@@H]2CC1`, the cytotoxicity at 70.5 h was -0.824%. In the case of `c1ccc(COC[C@@]23CCC[C@@H]2CN(Cc2ccccn2)C3)nc1`, the cytotoxicity at 70.5 h came out at 0.536%. The result for `CN1CCN(Cc2ccco2)Cc2cccnc21` reads 0%; that for `O=C([C@H]1C[C@H]2OCC[C@H]2N(CC2CC2)C1)N1CCCC1`, 5.6%; that for `Cn1cc(CN2CCc3ncnc(C4CCOC4)c3CC2)cn1` (stereo not drawn), 6%.

Consider `Cn1cccc1C(=O)N1CC[C@H]2[C@@H]1CCC(=O)N2c1ccccc1`, for which the cytotoxicity at 70.5 h is 11.6%.

On to `O=C(Cc1ccccc1)N1CC[C@@H]2CNS(=O)(=O)[C@@H]2CC1`, for which the cytotoxicity at 70.5 h was found to be 2.48%. Consider `Cn1cccc1C(=O)N1CC[C@H]2[C@@H]1CCC(=O)N2CC1CC1`, for which the cytotoxicity at 70.5 h came out at 3.01%. As for `O=C(NC1CC1)N1CCc2ccc(=O)n(CC3CC3)c2CC1`, the cytotoxicity at 70.5 h was -1.74%.

As to `O=C(NC1CC1)N1CCc2ccc(=O)n(Cc3ccncc3)c2CC1`, the cytotoxicity at 70.5 h amounted to 12.1%. Turning to `COCCNC(=O)[C@]12COC[C@H]1CN(c1cc(OC)ncn1)C2`, the cytotoxicity at 70.5 h is -1.98%.

`CN1CC(c2ccccc2)C2(CCN(C(=O)c3cccn3C)CC2)C1=O` (stereo not drawn): the cytotoxicity at 70.5 h is 1.54%. The result for `COc1cc(N2C[C@@H]3COC[C@]3(C(=O)NCc3ccccn3)C2)ncn1` reads -3.03%; that for `CCc1cnc(N2CC[C@@H]3CN(C(C)=O)CCO[C@@H]3C2)nc1`, -2.86%. Then `CN1C(=O)CC(c2ccccc2)C12CCN(C(=O)c1ccc[nH]1)CC2` (stereo not drawn), with -4.56%; and `c1csc(CN2CCC3(CC2)COCCN3CC2CC2)n1`, with -10.1%. The result for `CN1CCN(CC2CC2)C(=O)C12CCN(C(=O)c1cnccn1)CC2` reads -3.74%; that for `O=C(c1ccco1)N1CCO[C@@H]2CN(c3ncc(F)cn3)CC[C@@H]2C1`, -5.01%. Consider `Cn1nc(COCC2CC2)c2c1CCN(C(=O)c1ccno1)C2`, for which the cytotoxicity at 70.5 h is -10.9%. As for `CN1CC[C@]2(CN(C(=O)c3ccc[nH]3)C[C@H]2c2ccccc2)C1=O`, the cytotoxicity at 70.5 h is -3.54%. Then `O=C(c1ccoc1)N1CC[C@@H]2[C@@H](CC1)OCCN2c1cccnc1`, with -5.9%; and `CCOCc1nn(CC2CC2)c2c1CN(C(=O)c1ccno1)CC2`, with -7.44%; and `CO[C@@H]1CCN(c2ncc(F)cn2)[C@@H]2CN(CC3CC3)C[C@@H]21`, with -11.2%.

On to `CCN1C[C@H]2CCN(C(=O)c3cc[nH]n3)CC[C@H]2S1(=O)=O`, for which the cytotoxicity at 70.5 h was -14.6%.

Consider `O=S(=O)(c1ccccc1)N1C[C@@H]2COC[C@]2(COCC2CC2)C1`, for which the cytotoxicity at 70.5 h is 1.08%.

As to `c1cc([C@H]2C[C@@H]3CCN(Cc4nccs4)C[C@H]3O2)ncn1`, the cytotoxicity at 70.5 h is -3.39%.

For the molecule `CCC(C)n1c(SCC(=O)N2CCOCC2)nc2cc(C)[nH]c2c1=O` (stereo not drawn), the cytotoxicity at 70.5 h was 13.3%.

For the molecule `Cc1cc2nc(SCC(=O)N3CCOCC3)n(CCC(C)C)c(=O)c2[nH]1`, the cytotoxicity at 70.5 h is -0.683%.

For `O=C(O)c1nnn(-c2cccc(C(F)(F)F)c2)c1-c1ccncc1`, the cytotoxicity at 70.5 h was found to be 5.64%.

`CCc1cccc(-n2nnc(C(=O)O)c2-c2ccncc2)c1`: the cytotoxicity at 70.5 h is -13.1%. On to `O=C(O)c1nnn(-c2ccc(Cl)c(C(F)(F)F)c2)c1-c1ccncc1`, for which the cytotoxicity at 70.5 h was -26.7%. Then `CN1CCc2c(C#N)c(NCCCO)n3cnnc3c2C1`, with -20.7%.

On to `CN1CCc2c(C#N)c(NCc3ccncc3)n3cnnc3c2C1`, for which the cytotoxicity at 70.5 h is -14.7%. The result for `Cc1ncnc2c1CCN(C(=O)CN(C)C)CC2` reads 19.6%. The result for `O=C1COC2(CCN(c3cccc(F)c3)CC2)CN1Cc1ccccn1` reads 0.382%; that for `CC(C)NC(=O)[C@H]1C[C@@H]2[C@@H](C1)OCCN2CC1CC1`, -3.31%; that for `COc1cccc(CCN2C[C@H]3CCNCC[C@H]3S2(=O)=O)c1`, 23.9%. For `CCOc1ncnc2c1CCN(C(=O)CN(C)C)CC2`, the cytotoxicity at 70.5 h amounted to 0.621%.

Regarding `O=C(c1ccccc1-c1ccccc1)N1C[C@@H]2CNC[C@]2(C(=O)O)C1`, the cytotoxicity at 70.5 h turned out to be 1.22%. As for `O=C([C@H]1C[C@H]2OCC[C@H]2N(CC2CCOCC2)C1)N1CCCC1`, the cytotoxicity at 70.5 h was -2.01%. Then `Fc1ccc(N2CCC3(CC2)CC(OCc2cccnc2)CO3)cc1` (stereo not drawn), with 0.624%; and `COc1cccc(CN2CCC3(CCN(c4ncc(F)cn4)CC3)C2)c1`, with 0.663%. Turning to `O=S1(=O)NC[C@H]2CCN(Cc3ccccc3)CC[C@H]21`, the cytotoxicity at 70.5 h was -2.52%.

As to `N#Cc1ccc(CN2CC3(CCCCN3c3cccnc3)CC2=O)cc1` (stereo not drawn), the cytotoxicity at 70.5 h was 1%.

Take `CNC(=O)COC1COC2(CCN(c3cnccn3)CC2)C1` (stereo not drawn): the cytotoxicity at 70.5 h is 4.72%. Then `Cc1ccc(CN2CCOC3(CCN(C(=O)C4CCOC4)CC3)C2)cc1` (stereo not drawn), with -1.7%; and `Cc1noc(C)c1CN1CCC2(CC1)CCN(C(=O)c1cscn1)C2`, with 10.4%. Then `CCc1ccc(CN2CC[C@@H]3CN(S(C)(=O)=O)CCO[C@@H]3C2)o1`, with -3.27%; and `COCCN1CCN(C)C2(CCN(C(=O)c3ccnnc3)CC2)C1=O`, with -0.603%; and `CN1CCC2(CCN(CC3CCOCC3)CC2)C1=O`, with -10.4%.

With `CS(=O)(=O)N1CCCC12CCN(Cc1nccs1)C2` (stereo not drawn), the cytotoxicity at 70.5 h was -1.64%.

Take `O=C(c1ccco1)N1CCO[C@@H]2CN(c3ccccn3)CC[C@@H]2C1`: the cytotoxicity at 70.5 h was -4.86%. For `CC(C)CN1CCS(=O)(=O)[C@@H]2CCN(S(=O)(=O)C3CC3)CC[C@@H]21`, the cytotoxicity at 70.5 h is -16.5%. The result for `CN1CCC2(CCN(CC3CC3)CC2)C1=O` reads -7.27%; that for `CS(=O)(=O)N1CCCCC12CCCN(Cc1nccs1)C2` (stereo not drawn), 11.6%. Then `CO[C@@H]1CC[C@H]2[C@H]1OCCN2C(=O)c1ccc(C)nc1`, with -3.99%; and `CNC(=O)C1Cn2ccnc2C2(CCN(C(=O)CC3CCCC3)CC2)O1` (stereo not drawn), with -1.06%. In the case of `O=C(c1cnccn1)N1CCCC2(CCN(Cc3ccc(F)cc3)C2)C1` (stereo not drawn), the cytotoxicity at 70.5 h is -4.76%. Then `CS(=O)(=O)N1CC[C@]2(C[C@H](Oc3ccccn3)CO2)C1`, with -7.19%. Then `CNC(=O)C1Cn2ccnc2C2(CCN(C(=O)c3ccoc3C)CC2)O1` (stereo not drawn), with -5.12%; and `Cc1noc([C@H]2C[C@@H]3CCN(CC4CCOCC4)C[C@H]3O2)n1`, with -1.09%. Turning to `Cc1ccoc1C(=O)N1C[C@@H]2COC[C@]2(COCc2cccnc2)C1`, the cytotoxicity at 70.5 h was -0.687%.

For `O=C(c1ccccc1F)N1C[C@@H]2COC[C@]2(COCc2cccnc2)C1`, the cytotoxicity at 70.5 h is -1.45%. Take `O=C(Cc1cccs1)N1C[C@@H]2COC[C@]2(COCc2cccnc2)C1`: the cytotoxicity at 70.5 h was -5.53%. Then `COCCN1CCN(Cc2ccco2)Cc2ccc(C)nc21`, with 2.35%. In the case of `Fc1cnc(N2CCC3(CC2)CN(Cc2ccccn2)CCO3)nc1`, the cytotoxicity at 70.5 h came to 5.75%. Then `c1ccc(CN2C[C@H]3CCC[C@@]3(COCC3CC3)C2)nc1`, with -0.925%; and `O=C(C1CN(Cc2ccsc2)Cc2ccnn2C1)N1CCCC1` (stereo not drawn), with 2.84%. Then `CS(=O)(=O)N1CCO[C@@H]2CN(Cc3ccncc3)C[C@@H]2C1`, with -5.73%; and `c1csc(CN2CCC3(CCCN3CC3CC3)CC2)n1`, with -4.63%; and `O=S(=O)(c1cccnc1)N1C[C@@H]2COC[C@]2(CN2CCOCC2)C1`, with -4.52%.

Take `COc1ccc2c(c1)C1(CCN(Cc3ccccn3)CC1)N(C)CC2`: the cytotoxicity at 70.5 h was 0.00866%.

Consider `Cn1cccc1CN1CCC2(CCCN(C(=O)c3cccnc3)C2)CC1`, for which the cytotoxicity at 70.5 h is -2.44%. The result for `O=C1N(c2ccsc2)CCC12CCCN(Cc1cccnc1)C2` (stereo not drawn) reads -7.79%; that for `Cc1ccc(N2CC3(COCCN(Cc4ccccn4)C3)OCC2=O)s1` (stereo not drawn), -1.36%; that for `Cc1ccc(N2CC3(COCCN(Cc4ccncc4)C3)OCC2=O)s1` (stereo not drawn), 3.84%. Consider `c1ccc(CN2CCOC3(CCN(c4ncccn4)CC3)C2)nc1`, for which the cytotoxicity at 70.5 h is 12%.

For `Fc1cccc(N2CCCC3(CN(Cc4ccccn4)CCO3)C2)c1` (stereo not drawn), the cytotoxicity at 70.5 h was -1.7%.

`Cc1cccc(CN2Cc3[nH]nc(COc4cccnc4)c3C2)n1`: the cytotoxicity at 70.5 h is -3.62%. The result for `Cn1cnc(S(=O)(=O)N2C[C@H]3CN(Cc4cccnc4)C[C@H]3C2)c1` reads 1.66%; that for `CO[C@@H]1CCN(c2ncc(F)cn2)[C@@H]2CN(Cc3cccnc3)C[C@@H]21`, -0.732%.
